Experimental data published in patent US10376512B1, “Crystal of aniline pyrimidine compound of trifluoroethyl substituted indole and salt thereof” (CHIA TAI TIANQING PHARMACEUTICAL GROUP CO., LTD., priority 2018, dated 2019).

Test: Stability test for crystals under accelerated conditions (light, high temperature, high humidity)
Type: physicochemical
Conditions: light 5000 Lx±500 Lx; high temperature 60° C.±2° C.; high humidity 75% RH±5% RH; samples taken on the 5th, 10th and 30th day
Procedure: The stability of the crystal according to the disclosure may be detected by placing the crystal in a high temperature, a high humidity, or a lighting condition. 40-60° C. may be selected for the high temperature, the relative humidity of 75%-92.5% RH may be selected for the high humidity condition, and 5000 Lux may be selected for the lighting condition. The crystal stability may be evaluated by investigating a plurality of data, such as content, total content of impurities, or water content, of the sample, and comprehensively evaluating the parameters according to the properties of the product.
The stability of the crystal according to the disclosure was investigated under accelerated test conditions according to the Guiding Principles for Stability Test of Crude Drugs and Pharmaceutical Preparations. The stabilities of the crystals obtained in Examples 1-8 were tested in a light environment at 5000 Lx±500 Lx, a high temperature environment at 60° C.±2° C., and a high humidity environment at 75% RH±5% RH, respectively. Samples were taken on the 5th day, the 10th day, and the 30th day, respectively, and the appearance properties, moisture contents, and total impurities of related substances of the samples were recorded for comparison with the initial data.

- stability (appearance properties, moisture contents, total impurities of related substances compared with the initial data): better stability
SMILES: C=CC(=O)Nc1cc(Nc2nccc(-c3cn(CC(F)(F)F)c4ccccc34)n2)c(OC)cc1N(C)CCN(C)C [Example 3]
